Test results: ChEMBL document CHEMBL1142291, “A novel bicyclic hexapeptide, RA-XVIII, from Rubia cordifolia: structure, semi-synthesis, and cytotoxicity” (Bioorg Med Chem Lett, 2008)
In brackets after ≈: the same amount, converted by molar mass.

System: P388
Experiment: Cytotoxicity against mouse P388 cells
Type: functional, cell-based

`COc1ccc(C[C@H]2C(=O)N[C@@H](C)C(=O)N(C)[C@H]3Cc4ccc(cc4)Oc4cc(cc([N+](=O)[O-])c4O)C[C@@H](C(=O)N[C@H](C)C(=O)N[C@@H](C)C(=O)N2C)N(C)C3=O)cc1` showed an IC50 of 0.014 µg/mL (≈ 0.0175 µM).

`COc1ccc(C[C@H]2C(=O)N[C@@H](C)C(=O)N(C)[C@H]3Cc4ccc(cc4)Oc4cc(cc([N+](=O)[O-])c4OC)C[C@@H](C(=O)N[C@H](C)C(=O)N[C@@H](C)C(=O)N2C)N(C)C3=O)cc1` was tested, and the IC50 was 0.01 µg/mL (≈ 0.0123 µM).

Compound `COc1ccc(C[C@H]2C(=O)N[C@@H](C)C(=O)N(C)[C@H]3Cc4ccc(cc4)Oc4cc(c([N+](=O)[O-])cc4OC)C[C@@H](C(=O)N[C@H](C)C(=O)N[C@@H](C)C(=O)N2C)N(C)C3=O)cc1` has an IC50 of 0.056 µg/mL (≈ 0.0686 µM).

For `COc1ccc(C[C@H]2C(=O)N[C@@H](C)C(=O)N(C)[C@H]3Cc4ccc(cc4)Oc4cc(c(O)cc4OC)C[C@@H](C(=O)N[C@H](C)C(=O)N[C@@H](C)C(=O)N2C)N(C)C3=O)cc1`, the IC50 was 0.093 µg/mL (≈ 0.118 µM).

`COc1ccc(C[C@H]2C(=O)N[C@@H](C)C(=O)N(C)[C@H]3Cc4ccc(cc4)Oc4cc(ccc4OC)C[C@@H](C(=O)N[C@H](C)C(=O)N[C@@H](C)C(=O)N2C)N(C)C3=O)cc1` was tested, and the IC50 was 0.003 µg/mL (≈ 0.00389 µM).

For `COc1ccc(C[C@H]2C(=O)N[C@@H](C)C(=O)N(C)[C@H]3Cc4ccc(cc4)Oc4cc(cc(O)c4OC)C[C@@H](C(=O)N[C@H](C)C(=O)N[C@@H](C)C(=O)N2C)N(C)C3=O)cc1`, the IC50 was 0.012 µg/mL (≈ 0.0153 µM).

In the case of `COc1ccc(C[C@H]2C(=O)N[C@@H](C)C(=O)N(C)[C@H]3Cc4ccc(cc4)Oc4cc(cc(N)c4OC)C[C@@H](C(=O)N[C@H](C)C(=O)N[C@@H](C)C(=O)N2C)N(C)C3=O)cc1`, the IC50 is reported as 0.0071 µg/mL (≈ 0.00903 µM).

With `COc1ccc(C[C@H]2C(=O)N[C@@H](C)C(=O)N(C)[C@H]3Cc4ccc(cc4)Oc4cc(c(N)cc4OC)C[C@@H](C(=O)N[C@H](C)C(=O)N[C@@H](C)C(=O)N2C)N(C)C3=O)cc1` the IC50 was 0.7 µg/mL (≈ 0.891 µM).

For `COc1ccc(C[C@H]2C(=O)N[C@@H](C)C(=O)N(C)[C@H]3Cc4ccc(cc4)Oc4cc(ccc4O)C[C@@H](C(=O)N[C@H](C)C(=O)N[C@@H](C)C(=O)N2C)N(C)C3=O)cc1` [DEOXYBOUVARDIN], the IC50 was 0.014 µg/mL (≈ 0.0185 µM).
